# Laboratory results as given in US20240360089A1, “Metabolically Stable HDAC Inhibitors with Trifluoromethylpyruvamide as Metal-Binding Group” (The University of Toledo, priority 2023, published 2024).
# Like-named read-outs stand apart in the source and are kept apart here.
# Key:
# [1] = test system: RPE cells; test: Cell survival assay, normal cell line RPE; format: cell-based; conditions: Homo sapiens, FIG. 14A, maximum 30 μM
# Text: (§1) This reaffirms the selectivity of TFPAs for cancer cells over normal cells.
# (§2) HCT116 human colon cancer cells, NCI-H522 human lung cancer cells, HT1080 fibrosarcoma cells, HeLa cervical cancer cells, U2OS osteosarcoma cells, MDA-MB-231 and MDA-MB-468 breast cancer cells, WI38 diploid human cell line, and human retinal pigment epithelial RPE cells were preserved in Dulbecco's Modified Eagle's medium (Mediatech, Inc.) supplemented with 10% calf serum (Atlanta Biologicals) or 10% fetal bovine serum (Gemini Bio-Products #100-106) and 1000 U/ml of both Penicillin and Streptomycin (Mediatech, Inc.) at 37° C. with 5% CO2. Cell feasibility was examined using methylene blue staining. Cells were plated at a rate of 5000/well in 96 well plates (n=3) respectively and treated the next day. Three days after treatment, cells were fixed/stained in methylene blue saturated in 50% ethanol for 30 min at room temperature. Excessive water was used to wash off extra dye from the plates.
# [2] = test system: NCI-H522 lung cancer cell line; test: Growth inhibition / cell viability assay (methylene blue), NCI-H522; format: cell-based; conditions: Homo sapiens
# Method: (§3) Cell feasibility was examined using methylene blue staining. Cells were plated at a rate of 5000/well in 96 well plates (n=3) respectively and treated the next day. Three days after treatment, cells were fixed/stained in methylene blue saturated in 50% ethanol for 30 min at room temperature. Excessive water was used to wash off extra dye from the plates.
# [3] = test system: WI38 cells; test: Cell survival assay, normal cell line WI38; format: cell-based; conditions: Homo sapiens, WI-38, FIG. 14A, maximum 30 μM
# Text: as §1, §2
# [4] = test system: HCT116 cells; test: Growth inhibition / cell viability assay (methylene blue), HCT116; format: cell-based, human; conditions: for IC50: Homo sapiens, HCT-116
# Method: as §3
# [5] = test system: MDA-MB-468 breast cancer cell line; test: Growth inhibition assay (methylene blue), MDA-MB-468; format: cell-based; conditions: Homo sapiens, Table 4, unit inferred
# Method: as §3
# [6] = test system: MDA-MB-231 breast cancer cell line; test: Growth inhibition assay (methylene blue), MDA-MB-231; format: cell-based; conditions: Homo sapiens, Table 4, unit inferred
# Method: as §3
# [7] = test system: HT1080 fibrosarcoma cell line; test: Growth inhibition assay (methylene blue), HT1080; format: cell-based; conditions: Homo sapiens, HT-1080, Table 4, unit inferred
# Method: as §3
# [8] = test system: U2OS osteosarcoma cell line; test: Growth inhibition assay (methylene blue), U2OS; format: cell-based; conditions: Homo sapiens, Table 4, unit inferred
# Method: as §3
# [9] = test system: HeLa cervical cancer cell line; test: Growth inhibition assay (methylene blue), HeLa; format: cell-based; conditions: Homo sapiens, Table 4, unit inferred
# Method: as §3
# [10] = test system: sixty cell lines; test: NCI 60 cell five-dose assay; format: cell-based; conditions: Total Growth Inhibition
# [11] = test system: PARP1; test: Western blot analysis of PARP1 cleavage in HCT116 cells; format: cell-based, human; conditions: HCT116 cells treated for 24 h; measure of caspase dependent cell death
# Method: FIG. 13: Western blot analysis of PARP1 cleavage. HCT116 cells were treated with compounds 83, 84, and 85 at the indicated concentrations for 24 hr. Western blots were probed with an antibody that recognizes a cleaved form of PARP (Cell Signaling Technology 5626) as a measure of caspase dependent cell death.
# To determine whether the compounds herein induced apoptosis, the enzyme Poly (ADP ribose) polymerase 1 (PARP1) was analyzed by western blotting. Caspase-dependent proteolytic cleavage of PARP1 is one of the hall marks of apoptosis and antibodies that specifically recognize the cleavage products are available. […] HCT116 cells were treated with compounds 83, 84, and 85 for 24 h.
# (§4) NCI-H522 cell pellets obtained were lysed using lysis buffer containing 50 mM Tris (pH 7.4), 150 mM NaCl, 0.5% NP-40, (supplemented with 1 μg/ml aprotinin, 2 μg/ml leupeptin, 1 μg/ml pepstatin A, 1 mM DTT, and […]) for 30 minutes on ice and centrifuged at 13×10^3 g for 25 minutes at 4° C. The protein levels of the obtained lysates were normalized using BCA Protein Assay Kit (Pierce) and separated by SDS-polyacrylamide gel electrophoresis (12.5% acrylamide). Transfer to polyvinylidene difluoride membranes (Millipore) was followed by obstruction of membranes with blocking buffer containing 5% (w/v) non-fat dry milk dissolved in PBST [1×PBS containing 0.05% (v/v) Tween 20] for 1 hour at room temperature. Membranes were then incubated with corresponding primary antibodies overnight at 4° C. The membranes were then washed (3×15 min each) with PBST and incubated with secondary antibodies conjugated to horse-radish peroxidase, obtained from Biorad, and used at a dilution of 1:10,000. Bound antibodies were detected using enhanced chemiluminescence (Biorad).
# [12] = test system: acetyl-H3 and pan-acetyl-lysine; test: Hyperacetylation assay by western blot; format: cell-based, human; conditions: […], 5, and 10 μM, dose dependent
# Method: The hallmark of HDAC inhibition is the hyperacetylation of several proteins which are substrates for HDACs. Thus, histone H3 hyperacetylation assay of some active compounds was carried out by western blot using antibodies for Histone H3 and pan-acetyl lysine.
# as §4
# [13] = test system: sixty cell lines; test: NCI 60 cell one-dose assay; format: cell-based; conditions: result in words
# [14] = stated in the method as reason for the sampling interval; cited from earlier work
# [15] = S9 fraction metabolic stability assay (LC-ESI-MS); format: in vitro ADME; conditions: human liver S9 fraction
# Text: Previous studies established that trifluoromethyl ketones are metabolically unstable and reduced in vivo to trifluoromethyl alcohols (TFMAs). This metabolic reduction caused a major loss in activity. […] It was believed that in TFPAs, the hydrate form of the ketone is stabilized compared to TFMKs, and is therefore less susceptible to reductive metabolism. […] Metabolic stability studies are primarily conducted using liver microsomal assays, as the predominant cytochrome P450 enzymes present in them are responsible for the metabolism of most xenobiotics in the human body. However, P450 transformations are mostly oxidative in nature, precluding their use to assess the stability of ketone drugs against reductive metabolism. […] Thus, using a liver extract containing both cytosol and microsomal enzymes would be more appropriate for this assay. This was accomplished by using the S9 fraction, which is basically the supernatant obtained from centrifugation of hepatocytes at 9000 g and contains both liver cytosol and microsomal enzymes. LC-ESI-MS was used to monitor the reduction of TFPA 60 over time and it was compared with TFMK 91.
# A protocol similar to the one previously employed by others using Human Liver S9 fractions instead of liver microsomes was used for the metabolism studies. The assay was initiated by incubating a mixture of the substrate (0.02 mM), buffer (0.1M), and NADPH (1 mM) at 37° C. for ten minutes, followed by addition of the S9 fraction (0.5 mg) to the mixture and gentle mixing. The total volume of the reaction mixture was maintained at 1 mL. […] The reactions in the aliquots were terminated by adding an equal volume of ethyl acetate, mixing thoroughly, and transferring into micro centrifuge tubes. They were vortexed for 2 minutes and then subjected to centrifugation at 10,000×g for 15 minutes to remove the proteins. The top organic layers were extracted and evaporated under reduced pressure. The organic residues from the aliquots were dissolved in methanol first, then diluted 1:1 with water, and analyzed using LC-ESI-MS. A 450 μL aliquot of compound 60 with concentration of 0.02 mM contains 9 nanomoles, which after evaporation, was dissolved in 500 μL of methanol to give 18 μM in concentration of 60. This was diluted 1:1 with water to give a final concentration of 9 μM, which was used for LC-ESI-MS. Similarly, 200 μL of TFMK 91 at a concentration of 0.02 mM contains 4 nanomoles, which after removing ethyl acetate, and dissolving in 250 μL of methanol gives 16 μM concentration of 91. This was diluted 1:1 with water to give 8 μM final concentration for LC-ESI-MS.
# The solvent flow rate was 0.2 mL/min, and the sample injection volume was 20 μL. […]
# [16] = cap group SAR, HCT116 cell line, maximum concentration of 40 μM, read-out: IC50
# [17] = Table 4, growth inhibition, unit inferred, read-out: IC50 H522
"IC50 [4, 16] [µM]",IC50 [5] [nM],IC50 [6] [nM],IC50 [7] [nM],IC50 [8] [nM],"IC50 [2, 17] [µM]",SMILES,TGI [10] [µM],PARP1 cleavage (cleaved PARP1) [11],further results
2.37,1310 ± 180,1830 ± 350,2650 ± 210,1410 ± 180,2.86 ± 0.36,"O=C(CCCCCCNC(=O)C(O)(O)C(F)(F)F)Nc1nc2ccccc2s1 [Compound 61, N-(benzo[d]thiazol-2-yl)-7-(3,3,3-trifluoro-2,2-dihydroxypropanamido)heptanamide]",21.37,–,IC50 [9]: 1520 ± 230 nM
2.18,3650 ± 110,810 ± 100,2280 ± 470,3290 ± 460,3.23 ± 0.41,"COc1ccc2sc(NC(=O)CCCCCCNC(=O)C(O)(O)C(F)(F)F)nc2c1 [Compound 83, N-(5-methoxybenzo[d]thiazol-2-yl)-7-(3,3,3-trifluoro-2,2-dihydroxypropanamido)heptanamide]",12.3,Dose-dependent elevation of cleaved PARP1 was detectable,–

# The next lines start with the molecule.
SMILES,"IC50 [4, 16] [µM]",IC50 [5] [nM],IC50 [6] [nM],IC50 [7] [nM],IC50 [8] [nM],"IC50 [2, 17] [µM]",TGI [10] [µM],PARP1 cleavage (cleaved PARP1) [11],further results
"COc1ccc(NC(=O)CCCCCCNC(=O)C(O)(O)C(F)(F)F)cc1 [Compound 55, N-(4-methoxyphenyl)-7-(3,3,3-trifluoro-2,2-dihydroxypropanamido)heptanamide]",4.52,–,–,–,–,–,–,–,"IC50 [1]: > 30 µM; IC50 ([2]; cancer vs normal cells study, FIG. 14A, maximum 30 μM, read-out: IC50 NCI-H522): 8.05 µM; IC50 [3]: > 30 µM; IC50 ([4]; cancer vs normal cells study, FIG. 14A, maximum 30 μM, read-out: IC50 HCT116): 3.13 µM; cell survival HCT116 ([4]; maximum concentration of 30 μM, FIG. 14B): < 20%"
"COc1ccc(-c2cnc(NC(=O)CCCCCCNC(=O)C(O)(O)C(F)(F)F)s2)cc1 [Compound 84, N-(5-(4-methoxyphenyl)thiazol-2-yl)-7-(3,3,3-trifluoro-2,2-dihydroxypropanamido)heptanamide]",–,–,–,–,–,–,8.51,Absence of PARP1 cleavage,levels of acetylated H3 [12]: increased levels; levels of pan-acetyl-lysine [12]: increased levels; cytostatic / cytotoxic activity in NCI 60 assays [13]: cytotoxic effects
"O=C(CCCCCCC(=O)C(F)(F)F)Nc1ccccc1 [Compound 91, reference compound]",10.1,–,–,–,–,–,–,–,"half-life [14]: less than 30 minutes; time to complete disappearance (metabolic reduction) of parent M+1 peak ([15]; NADPH, 37° C., LC-ESI-MS, aliquots every 15 minutes): ≤ 15 min; metabolic reduction to the alcohol ([15]; result in words): quantitative biological reduction"
